Here are results for 25 molecules from US10793601B2, “Therapeutic spalt-like transcription factor 4 (SALL4) peptide” (National University of Singapore, priority 2016, dated 2020).

The nature of data set [1]: Plasma stability by LC-MS/MS.
Protocol: PEN-FFW was incubated with human plasma (pH7.4) at 37° C. over a 24 hour period (5 timepoints). Incubations were performed at a concentration of 1 μM (final DMSO concentration 2.5%). Reactions were terminated at 0, 5, 10, 15, 30 min, or 0, 1, 2, 4 and 24 hour, by addition of 2 volumes of methanol containing 1% Formic acid. The samples were centrifuged (2500 rpm, 45 min, 4° C.) and the supernatants diluted with 2 volumes of 0.2% Formic acid (aq) (containing Metoprolol (internal standard)). […] The percentage of parent peptide remaining at each time point relative to the 0 min sample was calculated from LC-MS/MS peak area ratios (compound peak area/internal standard peak area).
Another data set has as its system PLC8024 tumor xenografts. Nature of the data set: PLC8024 xenograft (Sorafenib-resistant HCC). It counts as in vivo, mice. As for the experimental part: FIGS. 9A-9E. Clinical significance of PEN-FFW compared to Sorafenib. FIG. 9A: PEN-FFW treated SNU398 tumor xenografts were compared to that of Sorafenib treated xenografts. FIG. 9B: PEN-FFW treated PLC8024 tumor xenografts were compared to that of Sorafenib treated xenografts. Mice body weight was measured to access toxicity of various peptides. FIG. 9C: Body weight of mice at day 17. FIG. 9D: Differences of body weight compared to day 0 (As indicated by the arrow in far left of FIG. 7A). FIG. 9E: Body weight of mice at day 19th in the experiment shown in FIG. 9A comparing effect of Sorafenib and PEN-FFW. Data represent mean±s.d. (n=5).
Clinical significance of PEN-FFW was studied in vivo by benchmarking against current therapy using Sorafenib. PEN-FFW treated SNU398 tumor xenografts were compared to that of Sorafenib treated xenografts (FIG. 9A). […] Potential therapeutic effect of PEN-FFW in HCC patients that are refractory to Sorafenib treatment was studied also studied in vivo. using a HCC cell line, PLC8024 which is SALL4 positive, CD133+ and is both chemo- and radio-resistant (Li et al., BMC Cancer 2016, 16, 15; Ma et al., Oncogene 2008, 27: 1749-1758), for the xenograft study.

For the next data set, the target named is T1, RBBp4 (Homo sapiens, UniProt Q09028).
T1 construct: purchased SinoBiological
As to the kind of experiment: Fluorescence polarization (FP) competition with FITC-labelled SALL4 WT peptide. It counts as binding. The following applies: for IC50: displacement of FITC-SALL4 WT peptide from RBBp4. As for the experimental part: (§1) FIGS. 3A-3E. Key residues involved in SALL4 (1-12)-RBBp4 binding. […] The difference in the binding free energy (ΔΔGbind) of the alanine mutants (ΔGmutant, Ala7 was mutated to glycine) and wild type (ΔGwild type) was calculated (ΔΔGbind=ΔGmutant−ΔGwild type). ΔΔGbind was tabulated (left) and plotted in a bar chart (right). […] Mutated residues are highlighted in red. The IC50 of each peptide, including WT, was determined by Fluorescence Polarization (FP). Different concentrations of each peptide were titrated into a mixture of 0.04 μM RBBp4 and 0.01 μM of C-labelled FITC-SALL4 WT peptide. Polarization was measured in mP. […] Pep-1 carrier was added to the peptide to facilitate cellular penetration of the peptides.
Peptides were titrated into a master mix of 0.045 μM RBBp4 and […] C-terminal FITC-labelled WT peptide (synthesized by Thermo Scientific). Reactions were incubated at room temperature before the plate was read with an Envision instrument (Perkin Elmer). IC50 values of peptides were determined using Prism (GraphPad).

In the next data set the test system is SNU398 cells. Nature of the data set: Cell viability assay in SNU398 cells. It counts as cell-based. The following applies: for EC50: 72 h. On the procedure:
as §1
FIGS. 5A-5B. Development of a potent therapeutic peptide FFW.
SNU398 was grown in RPMI supplemented with 10% fetal bovine serum (FBS) at 37° C. in a humidified atmosphere of 5% CO2. 3000 cells were seeded in each well of a 96 well plate with 100 μL of medium. Before peptide treatment, cells were washed twice with PBS and treated with different concentrations of peptide in OPTIMEM (LifeTech). Media was added after 4 hrs of incubation at 37° C., and cells incubated for another 68 hrs. Tetrazolium (CellTiter96 AQueous One Solution Cell Proliferation Assay, Promega) was added after 72 hrs incubation with the peptides, and the plate was read at a plate reader at 490 nm after 1 hr of incubation in the dark at 37° C.

A further data set has as its system PTEN. Nature of the data set: PTEN transcript level by quantitative real-time PCR in SNU398 cells. It counts as cell-based. The note with it: Q-PCR.
The next data set deals with SNU398. As to the kind of experiment: RNA-seq transcriptome analysis of treated SNU398. It counts as cell-based. On the procedure:
SNU398 were treated PEN, PEN-MUT, PEN-WT & PEN-FFW for 8 hrs and paired-end RNA-seq was performed for the treated samples. RNA-seq reads of each sample were mapped to hg19 using the STAR aligner. Normalization between the samples was based on the proportionality of the numbers of the mapped reads. The expression fold change of a transcript was obtained using linear regression of the reads between the two samples cross all exons. Differential expression between two samples was selected by using the fold change cut off of 2. Hierarchical clustering was performed based on average linkage to generate the clustering tree as well as heat maps. For identification of enriched gene sets or pathways, Gene Set Enrichment Analysis (GSEA) was performed based on the normalized data and using the GSEA tool (broad.mit.edu/gsea/) with msigdb.v5.0.

The next data set relates to SNU398 tumor xenografts. Nature of the data set: SNU398 xenograft in NSG mice. It counts as in vivo, NOD/SCID/gamma mice. The note with it: for effect on tumor growth: SNU398 xenograft, tumor volume against time; for tumor weight: mean, tumors resected on day 20, five i.p. injections. As for the experimental part: FIGS. 7A-7E. […] FIG. 7A: 7.2×10^5 SNU398 cells were inoculated subcutaneously into the right flank of NOD/SCID/gamma mice (NSG mice). Tumors were allowed to grow for one week before peptide treatments were administered every alternate day for a total of five injections. FIG. 7B: Tumor growth was documented by plotting tumor volume against time. […] FIG. 7C: Relative size of tumors resected on day 20. FIG. 7D: tumor weight was determined (n=5). […] FIG. 7E: Total RNA was isolated from the resected tumors and expression of PTEN was measured using real-time PCR.
FIGS. 9A-9E. […] FIG. 9A: PEN-FFW treated SNU398 tumor xenografts were compared to that of Sorafenib treated xenografts. FIG. 9B: PEN-FFW treated PLC8024 tumor xenografts were compared to that of Sorafenib treated xenografts. Mice body weight was measured to access toxicity of various peptides. FIG. 9C: Body weight of mice at day 17. FIG. 9D: Differences of body weight compared to day 0 (As indicated by the arrow in far left of FIG. 7A). FIG. 9E: Body weight of mice at day 19th in the experiment shown in FIG. 9A comparing effect of Sorafenib and PEN-FFW. Data represent mean±s.d. (n=5).
All mice were treated in accordance with Responsible Care and Use of Laboratory animals. In the SNU398 in vivo studies, 6-8-week-old female C.B-17 severe combined immunodeficient (SCID) mice (NSG) were inoculated s.c. into the flank with 7.2×10^5 cells in 2:1 PBS/Matrigel (BD Biosciences). The tumours were then allowed to develop to the size of 50-70 mm3 before intraperitoneal injections of the different peptides were given at two to three-day intervals for a total of 5 injections. Mice were randomly grouped in sets of six and treated with PEN (penetratin control), PEN-MUT (mutant control), PEN-WT (wild type control) and PEN-FFW (peptide 47). Tumor volumes were measured every 5 days and tumor weight were measured at the end point. For PEN control, 22.5 mg/kg were given; for PEN-MUT, PEN-WT and PEN-FFW, 35.6 mg/kg, 37 mg/kg and 36 mg/kg were given respectively to the mice according to their body weight Tumor measurements were taken twice weekly using Vernier calipers. Tumor volume was estimated using the following formula: V=0.5×width×width×length. When tumors approached ˜50 mm3, mice were randomized into groups of 5 animals each and received peptides treatment three times weekly by i.p. injection. All statistical analysis was done using a one-way ANOVA and Student's T-test.

Where “and” joins values, the source holds several entries; their conditions need not be identical. Equal values may be shown once. Ends that are not written are not given here. Where only a bound is given, the exact number is not on record here.

T1 sequence (Q09028 whole entry): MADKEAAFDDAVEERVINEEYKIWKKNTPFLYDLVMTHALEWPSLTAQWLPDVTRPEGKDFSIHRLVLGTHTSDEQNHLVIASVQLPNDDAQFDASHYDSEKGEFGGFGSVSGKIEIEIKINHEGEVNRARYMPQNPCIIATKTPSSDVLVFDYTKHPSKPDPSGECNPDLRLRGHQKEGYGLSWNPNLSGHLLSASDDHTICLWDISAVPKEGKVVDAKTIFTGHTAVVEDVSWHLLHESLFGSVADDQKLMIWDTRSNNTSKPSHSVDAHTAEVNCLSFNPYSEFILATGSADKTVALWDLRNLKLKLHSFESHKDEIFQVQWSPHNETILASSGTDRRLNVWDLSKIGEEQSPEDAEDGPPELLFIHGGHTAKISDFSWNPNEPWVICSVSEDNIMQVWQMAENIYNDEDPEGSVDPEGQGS

Take `CC1CC(OC(=O)C(O)c2ccccc2)CC(C)(C)N1C` (stereo not drawn) [Eucatropine]: the “peptide/compound remaining in the plasma” value in data set [1] (human plasma, 37° C., 1 μM, after 30 min) is on record as 40%. This molecule gave an amount remaining at 0.5 h, 1 μM in data set [1] (human, pH 7.4) of 40%.

As for `CNC(=O)c1cc(Oc2ccc(NC(=O)Nc3ccc(Cl)c(C(F)(F)F)c3)cc2)ccn1` [Sorafenib, reference compound], the “tumor growth as compared to the control group” value in the data set with PLC8024 tumor xenografts turned out to be 1.5 fold.

At RBBp4, Ac-ARKQAKPQHI-NH2 [Peptide 8] yielded an IC50 above 20000 nM.

Regarding Ac-KRKQAKPQHI-NH2 [Peptide 17], the IC50 at RBBp4 stood at 3800 ± 500 nM.

Take “Ac-MSARAQAKPQHI-NH2 (N-terminus and C-terminus assumed) [MUT]”: in the data set with SNU398 cells (SNU398, Pep-1 carrier added), the “effect on cell number” value was “does not”. The “increase in PTEN expression compared to untreated cells” value in the data set on PTEN is reported as “no significant change”.

On RBBp4, Ac-MSRRKQAKPQ-NH2 [Peptide 3] yielded an IC50 of 800 nM.

Consider Ac-RAKQAKPQHI-NH2 [Peptide 9], for which, at RBBp4, the IC50 was above 20000 nM.

Ac-RKQAKPQHI-NH2 [Peptide 7] came in with an IC50 on RBBp4 above 20000 nM.

Ac-RRAQAKPQHI-NH2 [Peptide 10] returned an IC50 on RBBp4 above 20000 nM.

At RBBp4, Ac-RRKFAKFQWI-NH2 [Peptide 46] displayed an IC50 of 23 nM. Also, at RBBp4 (ratio of FP IC50 values), the “increase in affinity as compared with the original 12-residue WT peptide” value was above 56 fold. In addition, the “log2 fd versus Contr (PEN + Mut), ADORA2A-AS1” value with SNU398 (gene ADORA2A-AS1, SNU398, 8 hrs) is 2.17. Moreover, in the data set with SNU398 (gene AVPR2, SNU398, 8 hrs), the “log2 fd versus Contr (PEN + Mut), AVPR2” value came to 1.53. In addition, in the data set with SNU398 (gene CSAD, SNU398, 8 hrs), the “log2 fd versus Contr (PEN + Mut), CSAD” value is on record as 1.09. In addition, the “log2 fd versus Contr (PEN + Mut), DNASE1L2” value in the data set with SNU398 (gene DNASE1L2, SNU398, 8 hrs) stood at 1.11. Further, the “log2 fd versus Contr (PEN + Mut), LOC619207” value in the data set with SNU398 (gene LOC619207, SNU398, 8 hrs) was 1.33. Besides, in the data set on SNU398 (gene NEIL1, SNU398, 8 hrs), the “log2 fd versus Contr (PEN + Mut), NEIL1” value came out at 1.11. Besides, the “log2 fd versus Contr (PEN + Mut), PRKXP1” value with SNU398 (gene PRKXP1, SNU398, 8 hrs) is 2.12. In the data set on SNU398 (gene SSPO, SNU398, 8 hrs), the “log2 fd versus Contr (PEN + Mut), SSPO” value amounted to 2.40.

On to Ac-RRKFAKPQHI-NH2 [Peptide 24], for which the “enhancement in binding affinity over that of peptide 6” value at RBBp4 (ratio of FP IC50 values) turned out to be 7 fold.

Ac-RRKLAKPQHI-NH2 [Peptide 23] had an IC50 at RBBp4 of 270 ± 100 nM.

For the molecule Ac-RRKQAKAQHI-NH2 [Peptide 13], the IC50 at RBBp4 was 270 ± 30 nM.

For the molecule Ac-RRKQAKFQHI-NH2 [Peptide 34], the IC50 at RBBp4 is 170 nM.

Ac-RRKQAKLQHI-NH2 [Peptide 33]: the IC50 at RBBp4 was found to be 4400 ± 1100 nM.

In the case of Ac-RRKQAKPAHI-NH2 [Peptide 14], the IC50 at RBBp4 stood at 120 ± 10 nM.

For the molecule Ac-RRKQAKPLHI-NH2 [Peptide 38], on RBBp4, the IC50 came out at 460 ± 100 nM.

Ac-RRKQAKPQHA-NH2 [Peptide 16] yielded an IC50 on RBBp4 of 460 ± 200 nM.

As for Ac-RRKQAKPQWI-NH2 [Peptide 41], the IC50 on RBBp4 is 120 nM. Besides, the “enhancement in binding affinity over that of peptide 6” value at RBBp4 (ratio of FP IC50 values) was determined as 3 fold.

Ac-RRKQRKPQHI-NH2 [Peptide 26] registered an IC50 on RBBp4 of 460 ± 100 nM.

Molecule Ac-RRRQAKPQHI-NH2 [Peptide 6] returned an IC50 on RBBp4 of 360 nM.

Turning to Ac-SRRKQAKPQHI-NH2 [Peptide 5], the IC50 on RBBp4 stood at 600 nM.

Take RQIKIWFQNRRMKWKK [PEN]: in the data set on SNU398 tumor xenografts, the “effect on tumor growth” value is on record as “neither peptide was able to inhibit tumor growth” and the tumor weight was found to be 1550.78 mg.

The molecule RQIKIWFQNRRMKWKKMSARAQAKPQHI [PEN-MUT] came in with an EC50 in the data set on SNU398 cells above 100000 nM. In addition, in the data set on SNU398 tumor xenografts, the “effect on tumor growth” value was “neither peptide was able to inhibit tumor growth” and the tumor weight is recorded as 1273.46 mg.

In the case of RQIKIWFQNRRMKWKKMSRRKQAKPQHI [PEN-WT], in the data set with SNU398 cells, the EC50 is 30000 nM. Also, in the data set on SNU398 tumor xenografts, the “effect on tumor growth” value is listed as “markedly impaired tumor growth”; the tumor weight is 563.46 mg and 564 mg.
